In US10766873B2, “Zuclopenthixol hydrochloride derivatives and Ebselen derivatives as ErbB2 inhibitors” (Centre National de la Recherche Scientifique (CNRS), priority 2016, dated 2020):
pEC50, pIC50: −log10 of the molar value. Read-outs that look alike come from different tables or passages of the source.

Columns and labels:
[1] = biological target: T1, FERM/ErbB2 interaction (Ezrin FERM domain / juxtamembrane ErbB2 peptide) (Homo sapiens, UniProt P04626); test: AlphaScreen competition assay, FERM/ErbB2 interaction; assay type: binding; conditions: for Competition assay FERM-ErbB2 interaction Max inhibition, %: 20 h
T1 construct: made in house
From the text: To validate that the Zuclopenthixol hydrochloride (ZU) and its derivatives interact with the juxtamembrane domain of ErbB2, we first analyzed in AlphaScreen® their efficiency to inhibit FERM/ErbB2 interaction in a dose-dependent manner and determined IC50 value. Furthermore, to test the selectivity of those compounds, we tested their ability to disrupt the interaction between the FERM domain and the known ERM binding motif contained in the juxtamembrane region of CD44 as a control.
AlphaScreen® technology was used to assess the interaction between the Ezrin binding motif (EBM) contained in the juxtamembrane portions of ErbB2 or CD44 with the Ezrin FERM domain. For this purpose the Ezrin FERM domain in fusion with Glutathione-S-Transferase (GST) has been coupled to GSH-coated acceptor beads. […] The AlphaScreen® reagents (Glutathione-coated Acceptor beads and streptavidin-coated Donor beads) were obtained from PerkinElmer.
The reaction was performed using white 384-well Optiplates (PerkinElmer, Whalham, Mass., USA) in 20 μl (total reaction volume) in a reaction buffer containing PBS, pH 7.4, 5 mM MgCl2 and 0.02% CHAPS. […] 10 μl of a mix solution containing 20 μg/ml Glutathione-coated Acceptor beads and 20 μg/ml streptavidin-coated Donor beads was then added to the wells and incubation was further proceeded for 40 min or overnight in the dark and at room temperature. Light signal was detected with the EnVision® multilabel plate reader (PerkinElmer). All experiments involving AlphaScreen® beads were performed under subdued lighting.

ErbB2 = ErbB2 (Homo sapiens, UniProt P04626); test: ErbB2 phosphorylation in SKBR3 cells, dot blot (4G10); assay type: cell-based; design: endogenous in cells; host or cells: SKBR3; conditions: for Emax: SK-BR-3, read-out: ErbB2 activation 24 h Max inhibition, %; for effect on ErbB2 phosphorylation/activation (in words): SKBR3
Procedure: The ability of ZU and EB1 and their derivatives to inhibit ErbB2 activity in cellulo on a commonly used ErbB2-overexpressing breast cancer cell line SKBR3 was analyzed. SKBR3 were treated 24 h with increasing concentrations of the compounds (0.625-80 μM) and ErbB2 phosphorylation was addressed by dot blot analysis using an anti-phosphotyrosine antibody (clone 4G10). Quantifications show the result of two independent experiments.

[2] = system: EGFR/ErBB2 or ErbB3/ErbB2 heterodimers-dependent signalling pathways; test: Ligand-dependent ErbB2 activation (EGF or HRG) in HBMECs, western blot; assay type: cell-based; conditions: pre-treatment 1 h or 24 h
Procedure: In physiological conditions, ErbB2 activation occurs in heterodimer with the other ErbB family members, such as the EGFR in response to EGF stimulation or ErbB3 in response to heregulin (HRG) stimulation. We therefore addressed whether ZU, EB1 and their derivatives also affected the ligand-dependent physiological ErbB2 activation.
16 h-starved HBMECs cells were pre-treated or not for 1 h or 24 h with ZU, […] and their derivatives or AG1478 before EGF (50 ng/mL) or HRG1β (100 ng/mL) stimulation for 5 minutes. The activation of EGFR/ErBB2 or ErbB3/ErbB2 heterodimers-dependent signalling pathways was then analysed by western blot experiments using pAkt, Akt, pERK, ERK or 4G10 antibodies.

HBMEC = test: MTT cell proliferation, HBMEC control cells; assay type: cell-based, human; conditions: for EC50: read-out: Cell proliferation at d 3 HBMEC EC50, μM; for pEC50: read-out: Cell proliferation at d 3 HBMEC EC50
Procedure: (§1) We then analyzed the ability of ZU and EB1 and their derivatives to decrease the ErbB2-dependent cell proliferation.
(§2) SKBR3, BT474, MCF-7, MDA-MB-231 and HBMEC cells were treated with the compounds as indicated, and cell proliferation was determined each day during 3 days using an MTT assay. Non treated cells were included as a negative control.
The WT, V777L or V842I ErbB2-transfected cells were treated with 5 or 10 μM of ZU and cell proliferation was determined each day during 3 days using an MTT assay. Non transfected cells were included as a negative control.
The WT, V777L or V842I ErbB2-transfected cells were treated with 5 or 10 μM of EB1 and cell proliferation was determined each day during 3 days using an MTT assay. Non transfected cells were included as a negative control.

BT474 = test: MTT cell proliferation, BT474; assay type: cell-based, human; conditions: for pEC50: read-out: Cell proliferation at d 3 BT474 EC50
Procedure: as §1, §2
(§3) A solution of ZU in cis conformation was mixed to a solution of ZU in trans conformation (1:1) to obtain ZU in a 50/50 cis/trans conformation and their respective effects on ErbB2 activation and ErbB2-dependent cell proliferation were analyzed as previously by dot blot analysis using an anti-phosphotyrosine antibody (clone 4G10) and by MTT assays in the ErbB2-overexpressing breast cancer cell line SKBR3, BT474, or HBMEC as a control.

SKBR3 = test: MTT cell proliferation, SKBR3; assay type: cell-based, human; conditions: for pEC50: read-out: Cell proliferation at d 3 SKBR3 EC50
Procedure: as §1, §2, §3

[3] = SKBR3, 24 h, read-out: ErbB2 activation 24 h EC50
[4] = Homo sapiens, BT-474, 72 h, day 3
[5] = Homo sapiens, SK-BR-3, 72 h, day 3
[6] = SKBR3, 24 h, read-out: IC50 ErbB2 phosphorylation

Compound | inhibition of FERM/ErbB2 interaction (in words) [1] | Competition assay FERM-ErbB2 interaction Max inhibition, % [1] [%] | Emax (ErbB2; SKBR3, 24 h, 0.625-80 μM) [%] | pEC50 (ErbB2; [3]) | pEC50 (BT474; [4]) | Cell proliferation at d 3 BT474 Max inhibition, % (BT474; day 3) [%] | pEC50 (SKBR3; [5]) | Cell proliferation at d 3 SKBR3 Max inhibition, % (SKBR3; day 3) [%] | Cell proliferation at d 3 HBMEC Max inhibition, % (HBMEC; day 3) [%] | further results
CCOC(=O)C1CCN(CCC=C2c3ccccc3Sc3ccccc32)CC1 [ZU4, 9-(3-(4-(ethylacetate)piperidine)propylidene)-thioxanthene] | inhibited FERM/ErbB2 interaction in a specific and dose-dependent manner | 36 | 27.5 | 4.32 |  |  |  |  |  | effect on ErbB2 phosphorylation/activation (in words) (ErbB2): lower decrease
COc1cc2ncnc(Nc3cccc(Cl)c3)c2cc1OC [AG1478] |  |  |  |  |  |  |  |  |  | ligand-dependent ErbB2 activation induced by EGF or HRG stimulation (in words) [2]: strongly blocked
FCCN1CCN(CC/C=C2/c3ccccc3Sc3ccc(C(F)(F)F)cc32)CC1 [ZUd, (Z)-1-(2-fluoroethyl)-4-(3-(2-(trifluoromethyl)-9H-thioxanthen-9-ylidene)propyl) Piperazine] |  | 54 | 51.4 |  | 4.78 | 86 | 5.17 | 86.4 |  | toxicity on control cells (in words) (HBMEC): non-specific toxic effects; EC50 (HBMEC; Homo sapiens, 72 h): 16.3 µM; inhibition at 20 µM (HBMEC; Homo sapiens, 72 h, 20 μM, day 3): 90%; reduction of BT474 proliferation (BT474; 20 μM, day 3): 86%; reduction of SKBR3 proliferation (SKBR3; 20 μM, day 3): 86%; pEC50 (ErbB2): 4.69; pIC50 (ErbB2): 4.46 to 5.30
CC(=O)OCCN1CCN(CC/C=C2/c3ccccc3Sc3ccc(Cl)cc32)CC1 [ZU5, (Z)-2-(4-(3-(2-chloro-9H-thioxanthen-9-ylidene)propyl)piperazin-1-yl)ethylacetate] | inhibited FERM/ErbB2 interaction in a specific and dose-dependent manner | 41 | 97.5 | 4.36 | 4.75 | 30.8 | 5.46 | 28.2 | 24.5 | effect on HBMEC proliferation (in words) (HBMEC; 1 and 5 μM): without any effect; EC50 (HBMEC; Homo sapiens, 72 h): 21.9 µM; reduction of BT474 proliferation (BT474; 1 and 5 μM, day 3): 33%; reduction of SKBR3 proliferation (SKBR3; 1 and 5 μM, day 3): 60%; pIC50 (ErbB2; [6]): 4.46 to 5.30
CCOC(=O)C1CCN(CCC=C2c3ccccc3Oc3ccccc32)CC1 [ZU6, ethyl 1-(3-(9H-xanthen-9-ylidene)propyl)piperidine-4-carboxylate] |  |  | 36.2 | 4.45 |  |  |  |  |  | effect on ErbB2 phosphorylation/activation (in words) (ErbB2): lower decrease
Cc1ccc(-n2sc3ccccc3c2=O)cc1 [EB2] |  |  | 43.8 | 4.74 | 4.93 | 20 | 5.03 | 34.1 | 29.5 | effect on HBMEC proliferation (in words) (HBMEC; 5 μM): without any effect; pEC50 (HBMEC; Homo sapiens, 72 h, day 3): 4.94; effect on SKBR3 proliferation (in words) (SKBR3; 5 μM): did not significantly decreased; pIC50 (ErbB2; [6]): 4.70 to 4.74
O=c1c2ccccc2sn1-c1ccc(Cl)cc1 [EB3] |  |  | 66.4 | 4.71 | 5.16 | 82.7 | 5.05 | 63.5 | 75.1 | effect on HBMEC proliferation (in words) (HBMEC; 7 μM): without any effect; pEC50 (HBMEC; Homo sapiens, 72 h, day 3): 2.56; reduction of BT474 proliferation (BT474; 7 μM, day 2): 30%; effect on SKBR3 proliferation (in words) (SKBR3; 7 μM): did not significantly decreased; pIC50 (ErbB2; [6]): 4.70 to 4.74
CS(=O)(=O)CCNCc1ccc(-c2ccc3ncnc(Nc4ccc(OCc5cccc(F)c5)c(Cl)c4)c3c2)o1 [lapatinib, reference compound] | did not inhibit |  |  |  |  |  |  |  |  | 
O=c1c2ccccc2[se]n1-c1ccccc1 [EBa, reference compound] |  |  | 15.6 | 4.39 |  |  |  |  |  | ligand-dependent ErbB2 activation induced by EGF or HRG stimulation (in words) [2]: did not block; reduction of ErbB2 phosphorylation (ErbB2; SKBR3, concentration of 10 μM): 15%
NCCN1CCN(CC/C=C2/c3ccccc3Sc3ccc(C(F)(F)F)cc32)CC1 [ZUc, (Z)-2-(4-(3-(2-(trifluoromethyl)-9H-thioxanthen-9-ylidene)propyl)piperazin-1-yl) Ethanamine] |  | 45 | 90.8 |  | 6.64 | 94.9 | 6.47 | 78.9 | 68.8 | toxicity on control cells (in words) (HBMEC): non-specific toxic effects; EC50 (HBMEC; Homo sapiens, 72 h): 0.14 µM; pEC50 (ErbB2): 5.29; pIC50 (ErbB2): 4.46 to 5.30
OCCN1CCN(CC/C=C2\c3ccccc3Sc3ccc(Cl)cc32)CC1 (single isomer, unassigned) [trans isomer] |  |  |  |  |  |  |  |  |  | effect on BT474 proliferation (in words) (BT474; 10 μM): no significant inhibitory effect; effect on SKBR3 proliferation (in words) (SKBR3; 10 μM): no significant inhibitory effect
O=C(O)C1CCN(CCC=C2c3ccccc3Sc3ccccc32)CC1 [ZUf, 1-(3-(9H-thioxanthen-9-ylidene)propyl)piperidine-4-carboxylic acid] |  | 11 | 0 |  |  |  |  |  |  | effect on ErbB2 phosphorylation/activation (in words) (ErbB2): no effect
O=C(O)C1CCN(CCC=C2c3ccccc3Oc3ccccc32)CC1 [ZUe, 1-(3-(9H-xanthen-9-ylidene)propyl)piperidine-4-carboxylic acid] |  |  | 0 |  |  |  |  |  |  | effect on ErbB2 phosphorylation/activation (in words) (ErbB2): no effect
CN1CCN(CC/C=C2/c3ccccc3Sc3ccc(S(=O)(=O)N(C)C)cc32)CC1 [ZU2] | inhibited FERM/ErbB2 interaction in a specific and dose-dependent manner | 16 | 74.2 | 4.50 |  |  |  |  |  | pIC50 (ErbB2; [6]): 4.46 to 5.30
9-(3-(4-(2-hydroxyethyl)piperazinyl)propylidene)-thioxanthene [ZU3] | inhibited FERM/ErbB2 interaction in a specific and dose-dependent manner | 28 |  | 4.49 |  | 31.5 |  | 32.6 | 0 | effect on HBMEC proliferation (in words) (HBMEC; 20 μM): without any effect; reduction of BT474 proliferation (BT474; 20 μM): 30%; pEC50 (BT474; day 3): 5.38; reduction of SKBR3 proliferation (SKBR3; 20 μM): 30%; pEC50 (SKBR3; day 3): 4.81; ErbB2 activation 24 h Max inhibition, % (ErbB2; SKBR3, 24 h, 0.625-80 μM): 75.12%
